Test results published in US11147272B2, “Pyridone compounds and agricultural and horticultural fungicides comprising the same as active ingredients” (MITSUI CHEMICALS AGRO, INC., priority 2017, dated 2021).

Legend:
[1] = tested on: Phytophthora infestans; test: whole plant or invertebrate; assay type: in vivo; conditions: 250 ppm drug solution sprayed on test plant
[2] = tested on: Botrytis cinerea; test: Test Example B: Gray mold on tomato; conditions: 250 ppm drug solution sprayed on test plant
[3] = tested on: Puccinia recondita; test: Test Example E: Brown rust on wheat; assay type: in vivo; conditions: 250 ppm drug solution sprayed on test plant
[4] = tested on: Plasmopara viticola; test: Test Example G: Downy mildew on vine; conditions: 250 ppm drug solution sprayed (2.5 ml/pot), grape Neomuscat, 7 to 10 days after inoculation
[5] = tested on: Alternaia brassicicola; test: Test Example C: Alternaria sooty spot on cabbage; assay type: in vivo; conditions: 250 ppm drug solution sprayed on test plant
Text: Seeds of a test plant (cabbage variety: Shikidori) were planted and cultivated until the cotyledons extended.
<Control Value> Control value=100{1−(n/3)}

[6] = tested on: Blumeria graminis f. sp. hordei; test: Test Example D: Powdery mildew on barley; conditions: 250 ppm drug solution sprayed on test plant
[7] = tested on: Colletotrichum orbiculare; test: Test Example H: Anthracnose on cucumber; conditions: 250 ppm drug solution sprayed (2.5 ml/pot), cucumber Sagami Hanjiro, 6 to 10 days after inoculation
[8] = tested on: Magnaporthe grisea; test: whole plant or invertebrate; assay type: in vivo; conditions: 250 ppm drug solution sprayed on test plant

In the case of `CCCc1cc(I)c(=O)n(CC(F)F)c1-c1c(F)cc(OC)cc1F` [compound 477], the “Test F control value” [1] was “L (50% or less control value)”, the “Test B control value” [2] was “H (more than 50% control value)” and the “Test E control value” [3] was “H (more than 50% control value)”. The “Test G control value” [4] was “L (50% or less control value)”, the “Test C control value” [5] was “H (more than 50% control value)” and the “Test D control value” [6] was “H (more than 50% control value)”. The “Test H control value” [7] was “H (more than 50% control value)” and the “Test A control value” [8] was “H (more than 50% control value)”.
`CCn1c(-c2c(F)cc(F)cc2F)c(CO)ccc1=O` [compound 478] was tested, and the “Test F control value” [1] was “L (50% or less control value)”, the “Test B control value” [2] was “L (50% or less control value)” and the “Test E control value” [3] was “L (50% or less control value)”. For the same compound, the “Test G control value” [4] was “L (50% or less control value)”, the “Test C control value” [5] was “L (50% or less control value)” and the “Test D control value” [6] was “H (more than 50% control value)”. The “Test H control value” [7] was “L (50% or less control value)” and the “Test A control value” [8] was “L (50% or less control value)”.
In the case of `CCn1c(-c2c(F)cc(F)cc2F)c(C(C)(OC)C(C)C)ccc1=O` (centres unmarked) [compound 479], the “Test F control value” [1] was “L (50% or less control value)”, the “Test B control value” [2] was “H (more than 50% control value)” and the “Test E control value” [3] was “H (more than 50% control value)”. The “Test G control value” [4] was “H (more than 50% control value)”, the “Test C control value” [5] was “H (more than 50% control value)” and the “Test D control value” [6] was “H (more than 50% control value)”. The “Test H control value” [7] was “H (more than 50% control value)” and the “Test A control value” [8] was “H (more than 50% control value)”.
For `CCC(=O)c1ccc(=O)n(CC)c1-c1c(F)cc(F)cc1F` [compound 480], the “Test F control value” [1] was “L (50% or less control value)”, the “Test B control value” [2] was “H (more than 50% control value)” and the “Test E control value” [3] was “L (50% or less control value)”. The “Test G control value” [4] was “L (50% or less control value)”, the “Test C control value” [5] was “L (50% or less control value)” and the “Test D control value” [6] was “H (more than 50% control value)”. For the same compound, the “Test H control value” [7] was “H (more than 50% control value)” and the “Test A control value” [8] was “L (50% or less control value)”.
With `CCn1c(-c2c(F)cc(F)cc2F)c(C(C)(O)CC)ccc1=O` (centres unmarked) [compound 481] the “Test F control value” [1] was “L (50% or less control value)”, the “Test B control value” [2] was “H (more than 50% control value)” and the “Test E control value” [3] was “H (more than 50% control value)”. The “Test G control value” [4] was “L (50% or less control value)”, the “Test C control value” [5] was “L (50% or less control value)” and the “Test D control value” [6] was “H (more than 50% control value)”. For the same compound, the “Test H control value” [7] was “H (more than 50% control value)” and the “Test A control value” [8] was “L (50% or less control value)”.
`CCn1c(-c2c(F)cc(F)cc2F)c(C(C)(O)CC)cc(Br)c1=O` (centres unmarked) [compound 482] was tested, and the “Test F control value” [1] was “L (50% or less control value)”, the “Test B control value” [2] was “H (more than 50% control value)” and the “Test E control value” [3] was “H (more than 50% control value)”. The “Test G control value” [4] was “H (more than 50% control value)”, the “Test C control value” [5] was “H (more than 50% control value)” and the “Test D control value” [6] was “H (more than 50% control value)”. The “Test H control value” [7] was “H (more than 50% control value)” and the “Test A control value” [8] was “H (more than 50% control value)”.
In the case of `CCn1c(-c2c(F)cc(F)cc2F)c(C(C)(CC)OC)cc(Br)c1=O` (centres unmarked) [compound 483], the “Test F control value” [1] was “L (50% or less control value)”, the “Test B control value” [2] was “H (more than 50% control value)” and the “Test E control value” [3] was “H (more than 50% control value)”. The “Test G control value” [4] was “H (more than 50% control value)”, the “Test C control value” [5] was “H (more than 50% control value)” and the “Test D control value” [6] was “H (more than 50% control value)”. For the same compound, the “Test H control value” [7] was “H (more than 50% control value)” and the “Test A control value” [8] was “H (more than 50% control value)”.
`CCOC(C)(CC)c1cc(Br)c(=O)n(CC)c1-c1c(F)cc(F)cc1F` (centres unmarked) [compound 484] was tested, and the “Test F control value” [1] was “L (50% or less control value)”, the “Test B control value” [2] was “H (more than 50% control value)” and the “Test E control value” [3] was “H (more than 50% control value)”. For the same compound, the “Test G control value” [4] was “H (more than 50% control value)”, the “Test C control value” [5] was “L (50% or less control value)” and the “Test D control value” [6] was “H (more than 50% control value)”. The “Test H control value” [7] was “H (more than 50% control value)” and the “Test A control value” [8] was “H (more than 50% control value)”.
`CCOC(C)(CC)c1cc(Br)c(=O)n(CC)c1-c1c(F)cc(OC)cc1F` (centres unmarked) [compound 485] was tested, and the “Test F control value” [1] was “L (50% or less control value)”, the “Test B control value” [2] was “H (more than 50% control value)” and the “Test E control value” [3] was “H (more than 50% control value)”. For the same compound, the “Test G control value” [4] was “L (50% or less control value)”, the “Test C control value” [5] was “H (more than 50% control value)” and the “Test D control value” [6] was “L (50% or less control value)”. The “Test H control value” [7] was “H (more than 50% control value)” and the “Test A control value” [8] was “H (more than 50% control value)”.
In the case of `CCn1c(-c2c(F)cc(OC)cc2F)c(C(C)(CC)OC)cc(Br)c1=O` (centres unmarked) [compound 486], the “Test F control value” [1] was “L (50% or less control value)”, the “Test B control value” [2] was “H (more than 50% control value)” and the “Test E control value” [3] was “H (more than 50% control value)”. For the same compound, the “Test G control value” [4] was “L (50% or less control value)”, the “Test C control value” [5] was “H (more than 50% control value)” and the “Test D control value” [6] was “H (more than 50% control value)”. The “Test H control value” [7] was “H (more than 50% control value)” and the “Test A control value” [8] was “H (more than 50% control value)”.
`COc1cc(F)c(-c2c(C(C)(O)C(C)C)cc(Cl)c(=O)n2C)c(F)c1` (centres unmarked) [compound 487] was tested, and the “Test F control value” [1] was “H (more than 50% control value)”, the “Test B control value” [2] was “H (more than 50% control value)” and the “Test E control value” [3] was “H (more than 50% control value)”. For the same compound, the “Test G control value” [4] was “H (more than 50% control value)”, the “Test C control value” [5] was “H (more than 50% control value)” and the “Test D control value” [6] was “H (more than 50% control value)”. For the same compound, the “Test H control value” [7] was “H (more than 50% control value)” and the “Test A control value” [8] was “H (more than 50% control value)”.
In the case of `COc1cc(F)c(-c2c(C(C)(OC)C(C)C)cc(Cl)c(=O)n2C)c(F)c1` (centres unmarked) [compound 488], the “Test F control value” [1] was “L (50% or less control value)”, the “Test B control value” [2] was “H (more than 50% control value)” and the “Test E control value” [3] was “H (more than 50% control value)”. The “Test G control value” [4] was “L (50% or less control value)”, the “Test C control value” [5] was “H (more than 50% control value)” and the “Test D control value” [6] was “L (50% or less control value)”. For the same compound, the “Test H control value” [7] was “H (more than 50% control value)” and the “Test A control value” [8] was “H (more than 50% control value)”.
`CCOC(C)(c1cc(Cl)c(=O)n(C)c1-c1c(F)cc(OC)cc1F)C(C)C` (centres unmarked) [compound 489] was tested, and the “Test F control value” [1] was “L (50% or less control value)”, the “Test B control value” [2] was “H (more than 50% control value)” and the “Test E control value” [3] was “H (more than 50% control value)”. For the same compound, the “Test G control value” [4] was “L (50% or less control value)”, the “Test C control value” [5] was “H (more than 50% control value)” and the “Test D control value” [6] was “H (more than 50% control value)”. The “Test H control value” [7] was “H (more than 50% control value)” and the “Test A control value” [8] was “H (more than 50% control value)”.
